Measurements from patent US7169789B2 (Kirin Beer Kabushiki Kaisha, priority 1999, dated 2007).
Like-named read-outs stand apart in the source and are kept apart here.

Tests used:
[1] = test system: activation of MAPK within vascular endothelial cells induced by VEGF stimulation; test: Inhibitory activity against activation of MAPK within vascular endothelial cells induced by VEGF stimulation; type: cell-based; conditions: human funicular venous vascular endothelial cells, VEGF 50 ng/ml, phosphorylated MAPK by immunoblotting
Outline: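 Serum-starved (0.5% FCS, 24 h) human umbilical vein endothelial cells pretreated with compound 1 h at 37 °C, then stimulated with 50 ng/ml recombinant human VEGF for 8 min.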

[2] = test system: A375 human melanoma cells; test: Karyomorphosis test; type: cell-based; conditions: test compound 10 μM and 1 μM, 48 hr, nuclei stained with propidium iodide
Protocol: A375 human melanoma cells (2×10^4) (obtained from Japanese Foundation for Cancer Research) were incolulated on a culture slide (manufactured by Falcon) and were cultured at 37° C. After the elapse of 5 hr from the initiation of the cultivation, the test compound was added to 10 μM and 1 μM, and the cultivation was continued for additional 48 hr. After the fixation of cells, 50 μg/ml propidium iodide solution containing ribonuclease (200 μg/ml) was added to stain nuclei. The stained nuclei were observed under a fluorescent microscope to analyze the nuclei for abnormality of karyomorphosis.

Human glioma cells GL07 = test: Antitumor effect on human glioma cells (GL07) transplanted into nude mice; type: in vivo; conditions: 20 mg/kg once a day for 9 days; for inhibition in vivo at 20 mg/kg: Mus musculus, Glioma cell, 216 h, read-out: TGIR, % (tumor growth inhibition rate)
Outline: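 GL07 xenografts in nude mice, grouped (n=4) at ~100 mm^3 tumor volume. Test compound 20 mg/kg p.o. or i.p. once daily for 9 days; vehicle controls. TGIR = (1−Tx/Cx)×100 from tumor volumes normalized to day-of-start volume = 1.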

SMILES | IC50 ([1]; Endothelial cell) | Change in morphosis [2] | inhibition in vivo at 20 mg/kg (Human glioma cells GL07; ip, GL07, intraperitoneal) | IC50 [1] | TGIR, % (tumor growth inhibition rate) (Human glioma cells GL07; GL07, intraperitoneal) | inhibition in vivo at 20 mg/kg (Human glioma cells GL07; GL07, oral) | TGIR, % (tumor growth inhibition rate) (Human glioma cells GL07; GL07, oral)
CCCNC(=O)Nc1ccc(Oc2ccnc3cc(OC)c(OC)cc23)cc1Cl [Example 13, N-{2-chloro-4-[(6,7-dimethoxy-4-quinolyl)oxy]-phenyl}-N′-propylurea] | 2.2 nM | (−) (the change in karyomorphosis of cells did not take place at 10 μM) | 52% |  |  |  | 
COc1cc2nccc(Oc3ccc(NC(=O)Nc4ccc(F)cc4C)c(Cl)c3)c2cc1OC [Example 14, N-{2-Chloro-4-[(6,7-dimethoxy-4-quinolyl)oxy]phenyl}-N′-(4-fluoro-2-methylphenyl)urea] | 0.7 nM | (−) (the change in karyomorphosis of cells did not take place at 10 μM) | 81% |  |  |  | 
COc1cc2nccc(Oc3ccc(NC(=O)Nc4ccc(Cl)cn4)c(Cl)c3)c2cc1OC [Example 16, N-{2-Chloro-4-[(6,7-dimethoxy-4-quinolyl)oxy]phenyl}-N′-(5-chloro-2-pyridyl)urea] | 2.9 nM | (−) (the change in karyomorphosis of cells did not take place at 10 μM) | 77% |  |  |  | 
COc1cc2nccc(Oc3ccc(NC(=O)Nc4ccc(Br)cn4)c(Cl)c3)c2cc1OC [Example 17, N-(5-Bromo-2-pyridyl)-N′-{2-chloro-4-[(6,7-dimethoxy-4-guinolyl)oxy]phenyl}urea] |  | (−) (the change in karyomorphosis of cells did not take place at 10 μM) |  | 11 nM | 85% |  | 
COc1ccccc1NC(=O)Nc1ccc(Oc2ccnc3cc(OC)c(OC)cc23)cc1Cl [Example 18, N-{2-Chloro-4-[(6,7-dimethoxy-4-quinolyl)oxy]phenyl}-N′-(2-methoxyphenyl)urea] | 0.6 nM | (−) (the change in karyomorphosis of cells did not take place at 10 μM) |  |  |  | 57% | 
COc1cc2nccc(Oc3ccc(NC(=O)Nc4ccc(F)cc4F)c(C)c3C)c2cc1OC [Example 24, N-(2,4-Difluorophenyl)-N′-{4-[(6,7-dimethoxy-4-guinolyl)oxy]-2,3-dimethylphenyl}urea] |  | (−) (the change in karyomorphosis of cells did not take place at 10 μM) |  | 0.6 nM |  |  | 63%
COc1cc2nccc(Oc3ccc(NC(=O)Nc4ccc(F)cc4C)c(C)c3C)c2cc1OC [Example 25, N-{4-[(6,7-Dimethoxy-4-guinolyl)oxy]-2,3-dimethylphenyl}-N′-(4-fluoro-2-methylphenyl)urea] |  | (−) (the change in karyomorphosis of cells did not take place at 10 μM) |  | 3.9 nM | 68% |  | 
COc1cc2nccc(Oc3ccc(NC(=O)Nc4ccc(Cl)cn4)c(C)c3C)c2cc1OC [Example 28, N-(5-Chloro-2-pyridyl)-N′-{4-[(6,7-dimethoxy-4-guinolyl)oxy]-2,3-dimethylphenyl}urea] |  | (−) (the change in karyomorphosis of cells did not take place at 10 μM) |  | 4 nM | 84% |  | 
COc1cc2nccc(Oc3ccc(NC(=O)Nc4ccc(Br)cn4)c(C)c3C)c2cc1OC [Example 29, N-(5-Bromo-2-pyridyl)-N′-{4-[(6,7-dimethoxy-4-quinolyl)oxy]-2,3-dimethylphenyl}urea] | 4.4 nM | (−) (the change in karyomorphosis of cells did not take place at 10 μM) |  |  |  | 64% | 
COc1cc2nccc(Oc3cc(C)c(NC(=O)Nc4ccc(F)cc4F)cc3C)c2cc1OC [Example 37, N-(2,4-Difluorophenyl)-N′-{4-[(6,7-dimethoxy-4-quinolyl)oxy]-2,5-dimethylphenyl}urea] | 2.3 nM | (−) (the change in karyomorphosis of cells did not take place at 10 μM) | 70% |  |  |  | 
COc1cc2nccc(Oc3ccc(NC(=O)Nc4ccc(F)cc4F)c([N+](=O)[O-])c3)c2cc1OC [Example 48, N-(2,4-Difluorophenyl)-N′-{4-[(6,7-dimethoxy-4-quinolyl)oxy]-2-nitrophenyl}urea] | 0.5 nM | (−) (the change in karyomorphosis of cells did not take place at 10 μM) | 90% |  |  |  | 
COc1cc2c(Oc3cc(C)c(NC(=O)Nc4ccc(F)cc4F)cc3C)ccnc2cc1OCCN1CCOCC1 [Example 52, N-(2,4-Difluorophenyl)-N′-(4-{[6-methoxy-7-(2-morpholinoethoxy)-4-guinolyl]oxy}-2,5-dimethylphenyl)urea] |  | (−) (the change in karyomorphosis of cells did not take place at 10 μM) |  | 4.4 nM |  |  | 
COc1ccccc1NC(=O)Nc1cc(C)c(Oc2ccnc3cc(OCCN4CCOCC4)c(OC)cc23)cc1C [Example 53, N-(4-{[6-Methoxy-7-(2-morpholinoethoxy)-4-quinolyl]oxy}-2,5-dimethylphenyl)-N′-(2-methoxyphenyl)urea] | 5.9 nM | (−) (the change in karyomorphosis of cells did not take place at 10 μM) |  |  |  |  | 
COCCOc1cc2nccc(Oc3ccc(NC(=O)Nc4ccccc4OC)c(Cl)c3)c2cc1OC [Example 55, N-(2-Chloro-4-{[6-methoxy-7-(2-methoxyethoxy)-4-quinolyl]oxy}phenyl)-N′-(2-methoxyphenyl)urea] | 2.8 nM | (−) (the change in karyomorphosis of cells did not take place at 10 μM) |  |  |  |  | 
COCCOc1cc2nccc(Oc3cc(C)c(NC(=O)Nc4ccc(F)cc4F)cc3C)c2cc1OC [Example 58] |  | (−) (the change in karyomorphosis of cells did not take place at 10 μM) |  | 5.1 nM |  |  | 
COCCOc1cc2nccc(Oc3cc(C)c(NC(=O)Nc4ccccc4OC)cc3C)c2cc1OC [Example 59, N-(4-{[6-Methoxy-7-(2-methoxyethoxy)-4-quinolyl]oxy}-2,5-dimethylphenyl)-N′-(2-methoxyphenyl)-urea] | 5.8 nM | (−) (the change in karyomorphosis of cells did not take place at 10 μM) |  |  |  |  | 
CCCNC(=O)Nc1ccc(Oc2ncnc3cc(OC)c(OC)cc23)cc1Cl [Example 62, N-{2-chloro-4-[(6,7-dimethoxy-4-quinazolinyl)-oxy]phenyl}-N′-propylurea] | 16 nM | (−) (the change in karyomorphosis of cells did not take place at 10 μM) |  |  |  | 78% | 
